In PubChem BioAssay (NCI):
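Cultured in 96-well plates, cells were exposed to test compound for 48 hours across five concentrations. Abbreviation: GI50, concentration required for 50% inhibition of growth. TGI: total growth inhibition.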

Experiments:
Test in all cases: NCI-60 cell line screen, 48 h
786-0 renal = test system: 786-0 renal
A498 renal = test system: A498 renal
A549 NSCLC = test system: A549 NSCLC
ACHN renal = test system: ACHN renal
BT-549 breast = test system: BT-549 breast
CAKI-1 renal = test system: CAKI-1 renal
CCRF-CEM leukemia = test system: CCRF-CEM leukemia
COLO 205 colon = test system: COLO 205 colon
DU-145 prostate = test system: DU-145 prostate
EKVX NSCLC = test system: EKVX NSCLC
HCC-2998 colon = test system: HCC-2998 colon
HCT-116 colon = test system: HCT-116 colon
HCT-15 colon = test system: HCT-15 colon
HL-60(TB) leukemia = test system: HL-60(TB) leukemia
HOP-62 NSCLC = test system: HOP-62 NSCLC
HOP-92 NSCLC = test system: HOP-92 NSCLC
HS 578T breast = test system: HS 578T breast
HT29 colon = test system: HT29 colon
IGROV1 ovarian = test system: IGROV1 ovarian
K-562 leukemia = test system: K-562 leukemia
KM12 colon = test system: KM12 colon
M14 melanoma = test system: M14 melanoma
MALME-3M melanoma = test system: MALME-3M melanoma
MCF7 breast = test system: MCF7 breast
MDA-MB-231 breast = test system: MDA-MB-231 breast
MDA-MB-435 = test system: MDA-MB-435
MDA-MB-468 breast = test system: MDA-MB-468 breast
MOLT-4 leukemia = test system: MOLT-4 leukemia
NCI-H226 lung = test system: NCI-H226 lung
NCI-H23 lung = test system: NCI-H23 lung
NCI-H460 lung = test system: NCI-H460 lung
NCI-H522 lung = test system: NCI-H522 lung
OVCAR-3 ovarian = test system: OVCAR-3 ovarian
OVCAR-4 ovarian = test system: OVCAR-4 ovarian
OVCAR-5 ovarian = test system: OVCAR-5 ovarian
OVCAR-8 ovarian = test system: OVCAR-8 ovarian
PC-3 prostate = test system: PC-3 prostate
RPMI-8226 leukemia = test system: RPMI-8226 leukemia
RXF 393 renal = test system: RXF 393 renal
SF-268 CNS = test system: SF-268 CNS
SF-295 CNS = test system: SF-295 CNS
SF-539 CNS = test system: SF-539 CNS
SK-MEL-2 melanoma = test system: SK-MEL-2 melanoma
SK-MEL-28 melanoma = test system: SK-MEL-28 melanoma
SK-MEL-5 melanoma = test system: SK-MEL-5 melanoma
SK-OV-3 ovarian = test system: SK-OV-3 ovarian
SN12C renal = test system: SN12C renal
SNB-19 CNS = test system: SNB-19 CNS
SNB-75 CNS = test system: SNB-75 CNS
SR leukemia = test system: SR leukemia
SW-620 colon = test system: SW-620 colon
T-47D breast = test system: T-47D breast
TK-10 renal = test system: TK-10 renal
U251 CNS = test system: U251 CNS
UACC-257 melanoma = test system: UACC-257 melanoma
UACC-62 melanoma = test system: UACC-62 melanoma
UO-31 renal = test system: UO-31 renal

N#Cc1c(-c2ccc(Cl)cc2)nc2n[nH]c(-c3ccc(Cl)cc3)c2c1-c1ccc(C(F)(F)F)cc1
GI50 (786-0 renal): 2.57 µM | TGI (786-0 renal): 7.55 µM | GI50 (A498 renal): 3.1 µM | TGI (A498 renal): 8.71 µM | GI50 (A549 NSCLC): 3.45 µM | TGI (A549 NSCLC): 12 µM | GI50 (ACHN renal): 2.85 µM | TGI (ACHN renal): 9.97 µM | GI50 (BT-549 breast): 2.17 µM | TGI (BT-549 breast): 4.78 µM | GI50 (CAKI-1 renal): 2 µM | TGI (CAKI-1 renal): 7.2 µM | GI50 (CCRF-CEM leukemia): 2.18 µM | TGI (CCRF-CEM leukemia): 6.57 µM | GI50 (COLO 205 colon): 1.71 µM | TGI (COLO 205 colon): 3.24 µM | GI50 (DU-145 prostate): 3.6 µM | TGI (DU-145 prostate): 15.9 µM | GI50 (EKVX NSCLC): 2.71 µM | TGI (EKVX NSCLC): 11.4 µM | GI50 (HCC-2998 colon): 2.29 µM | TGI (HCC-2998 colon): 5.36 µM | GI50 (HCT-116 colon): 1.61 µM | TGI (HCT-116 colon): 3.74 µM | GI50 (HCT-15 colon): 2.57 µM | TGI (HCT-15 colon): 10.4 µM | GI50 (HL-60(TB) leukemia): 1.79 µM | TGI (HL-60(TB) leukemia): 4.79 µM | GI50 (HOP-62 NSCLC): 3.06 µM | TGI (HOP-62 NSCLC): 9.84 µM | GI50 (HOP-92 NSCLC): 1.57 µM | TGI (HOP-92 NSCLC): 4.37 µM | GI50 (HS 578T breast): 2.23 µM | TGI (HS 578T breast): 7.18 µM | GI50 (HT29 colon): 2.77 µM | TGI (HT29 colon): 10.9 µM | GI50 (IGROV1 ovarian): 1.92 µM | TGI (IGROV1 ovarian): 6.49 µM | GI50 (K-562 leukemia): 2.09 µM | TGI (K-562 leukemia): 5.91 µM | GI50 (KM12 colon): 2.49 µM | TGI (KM12 colon): 8.32 µM | GI50 (M14 melanoma): 2.17 µM | TGI (M14 melanoma): 5.53 µM | GI50 (MALME-3M melanoma): 1.98 µM | TGI (MALME-3M melanoma): 4.86 µM | GI50 (MCF7 breast): 2.43 µM | TGI (MCF7 breast): 10.8 µM | GI50 (MDA-MB-231 breast): 2.12 µM | TGI (MDA-MB-231 breast): 4.64 µM | GI50 (MDA-MB-435): 2.1 µM | TGI (MDA-MB-435): 4.86 µM | GI50 (MDA-MB-468 breast): 2.59 µM | TGI (MDA-MB-468 breast): 9.55 µM | GI50 (MOLT-4 leukemia): 1.72 µM | TGI (MOLT-4 leukemia): 6.12 µM | GI50 (NCI-H226 lung): 2.37 µM | TGI (NCI-H226 lung): 8.97 µM | GI50 (NCI-H23 lung): 2.24 µM | TGI (NCI-H23 lung): 7.68 µM | GI50 (NCI-H460 lung): 2.08 µM | TGI (NCI-H460 lung): 4.57 µM | GI50 (NCI-H522 lung): 2.03 µM | TGI (NCI-H522 lung): 5.68 µM | GI50 (OVCAR-3 ovarian): 2.19 µM | TGI (OVCAR-3 ovarian): 5.07 µM | GI50 (OVCAR-4 ovarian): 2.5 µM | TGI (OVCAR-4 ovarian): 8.38 µM | GI50 (OVCAR-5 ovarian): 2.16 µM | TGI (OVCAR-5 ovarian): 5.22 µM | GI50 (OVCAR-8 ovarian): 3.23 µM | TGI (OVCAR-8 ovarian): 12.5 µM | GI50 (PC-3 prostate): 2.25 µM | TGI (PC-3 prostate): 9.31 µM | GI50 (RPMI-8226 leukemia): 1.93 µM | TGI (RPMI-8226 leukemia): 6.27 µM | GI50 (RXF 393 renal): 2.64 µM | TGI (RXF 393 renal): 9.54 µM | GI50 (SF-268 CNS): 2.92 µM | TGI (SF-268 CNS): 11.5 µM | GI50 (SF-295 CNS): 2.62 µM | TGI (SF-295 CNS): 8.3 µM | GI50 (SF-539 CNS): 1.85 µM | TGI (SF-539 CNS): 3.76 µM | GI50 (SK-MEL-2 melanoma): 1.72 µM | TGI (SK-MEL-2 melanoma): 3.26 µM | GI50 (SK-MEL-28 melanoma): 2.68 µM | TGI (SK-MEL-28 melanoma): 8.7 µM | GI50 (SK-MEL-5 melanoma): 1.92 µM | TGI (SK-MEL-5 melanoma): 3.79 µM | GI50 (SK-OV-3 ovarian): 3.03 µM | TGI (SK-OV-3 ovarian): 10.2 µM | GI50 (SN12C renal): 2.59 µM | TGI (SN12C renal): 8.35 µM | GI50 (SNB-19 CNS): 3.38 µM | TGI (SNB-19 CNS): 14.7 µM | GI50 (SNB-75 CNS): 1.75 µM | TGI (SNB-75 CNS): 6.59 µM | GI50 (SR leukemia): 1.69 µM | TGI (SR leukemia): 4.42 µM | GI50 (SW-620 colon): 2.76 µM | TGI (SW-620 colon): 10.8 µM | GI50 (T-47D breast): 2.53 µM | TGI (T-47D breast): 8.38 µM | GI50 (TK-10 renal): 3.99 µM | TGI (TK-10 renal): 15.6 µM | GI50 (U251 CNS): 3.03 µM | TGI (U251 CNS): 11.2 µM | GI50 (UACC-257 melanoma): 2.72 µM | TGI (UACC-257 melanoma): 8 µM | GI50 (UACC-62 melanoma): 1.87 µM | TGI (UACC-62 melanoma): 5.57 µM | GI50 (UO-31 renal): 2.1 µM | TGI (UO-31 renal): 8.61 µM
